Assay results from ChEMBL document CHEMBL1201862, “PubChem BioAssay data set” (2004).
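The compound was tested at five concentrations on cells cultured in 96-well plates, with a 48-hour exposure period. GI50 = concentration required for 50% inhibition of growth.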 Active and inactive are the calls of the source. Rule as the data show it: active = GI50 up to about 1.1 µM and inactive = higher.

Legend:
Assay in all cases: NCI anticancer screen, dose series, 48 h
ACHN = tested on: ACHN
CAKI-1 = tested on: CAKI-1
CCRF-CEM = tested on: CCRF-CEM
HOP-62 = tested on: HOP-62
KM12 = tested on: KM12
MOLT-4 = tested on: MOLT-4
OVCAR-3 = tested on: OVCAR-3
OVCAR-4 = tested on: OVCAR-4
OVCAR-8 = tested on: OVCAR-8
SK-MEL-28 = tested on: SK-MEL-28
SN12C = tested on: SN12C
SNB-19 = tested on: SNB-19
SNB-75 = tested on: SNB-75
TK-10 = tested on: TK-10
U-251 = tested on: U-251
SK-MEL-5 = tested on: SK-MEL-5

Structure (SMILES)	GI50 (ACHN)	GI50 (CAKI-1)	GI50 (CCRF-CEM)	GI50 (HOP-62)	GI50 (KM12)	GI50 (MOLT-4)	GI50 (OVCAR-3)	GI50 (OVCAR-4)	GI50 (OVCAR-8)	GI50 (SK-MEL-28)	GI50 (SN12C)	GI50 (SNB-19)	GI50 (SNB-75)	GI50 (TK-10)	GI50 (U-251)	GI50 (SK-MEL-5)
CCCCCN(CCCCC)C(=O)[C@@H](CCC(=O)O)NC(=O)c1cc2ccccc2[nH]1	30.5 µM (inactive)	25.1 µM (inactive)	22.8 µM (inactive)	32.2 µM (inactive)	39.3 µM (inactive)	21.5 µM (inactive)	33.9 µM (inactive)	44 µM (inactive)	52.8 µM (inactive)	21.4 µM (inactive)	43.4 µM (inactive)	34.9 µM (inactive)	12.3 µM (inactive)	46.6 µM (inactive)	29.1 µM (inactive)	
CCCCC(C)C(OC(=O)CC(CC(=O)O)C(=O)O)C(CC(C)CC(O)CCCCC(O)CC(O)C(C)N)OC(=O)CC(CC(=O)O)C(=O)O (centres undefined)	> 100 µM (inactive)	> 100 µM (inactive)	> 100 µM (inactive)	> 100 µM (inactive)	> 100 µM (inactive)	> 100 µM (inactive)	> 100 µM (inactive)	> 100 µM (inactive)	> 100 µM (inactive)	> 100 µM (inactive)	> 100 µM (inactive)	> 100 µM (inactive)	> 78.3 µM (inactive)	> 100 µM (inactive)	> 100 µM (inactive)	> 100 µM (inactive)
O=C1CNC(=O)c2[nH]cnc2N1	> 100 µM (inactive)		> 100 µM (inactive)		> 100 µM (inactive)	> 100 µM (inactive)	> 100 µM (inactive)	> 100 µM (inactive)	> 100 µM (inactive)	> 100 µM (inactive)	> 100 µM (inactive)	> 100 µM (inactive)	> 100 µM (inactive)	> 100 µM (inactive)	> 100 µM (inactive)	> 100 µM (inactive)
COc1cc(CCC(=O)NS(=O)(=O)c2ccccc2)cc(OC)c1OC	> 100 µM (inactive)	> 100 µM (inactive)	> 100 µM (inactive)	> 100 µM (inactive)	> 100 µM (inactive)	> 100 µM (inactive)	> 100 µM (inactive)	> 100 µM (inactive)	> 100 µM (inactive)	> 100 µM (inactive)	> 100 µM (inactive)	> 100 µM (inactive)	61.4 µM (inactive)	> 100 µM (inactive)	> 100 µM (inactive)	
CSCCC(C(=O)O)N(CC1(O)OCC(O)C(O)C1O)N=O (centres undefined)	> 100 µM (inactive)		> 100 µM (inactive)	> 100 µM (inactive)	> 100 µM (inactive)	> 100 µM (inactive)	> 100 µM (inactive)		> 100 µM (inactive)	> 100 µM (inactive)			> 100 µM (inactive)	> 100 µM (inactive)	> 100 µM (inactive)	> 100 µM (inactive)
CCOC(=O)C(Oc1ccc(OC)c2c1C(=O)CCC2)c1ccccc1 (centres undefined)	> 100 µM (inactive)	> 100 µM (inactive)	65.5 µM (inactive)	> 100 µM (inactive)	> 100 µM (inactive)	33.7 µM (inactive)	> 100 µM (inactive)	48.9 µM (inactive)	> 100 µM (inactive)	> 100 µM (inactive)	> 100 µM (inactive)	> 100 µM (inactive)		> 100 µM (inactive)	> 100 µM (inactive)	43.2 µM (inactive)
CN1C(c2ccccc2)CS(=O)(=O)CS1(=O)=O (centres undefined)	> 100 µM (inactive)	> 100 µM (inactive)		> 100 µM (inactive)	> 100 µM (inactive)		30.1 µM (inactive)	> 100 µM (inactive)	> 100 µM (inactive)	> 100 µM (inactive)	> 100 µM (inactive)	> 100 µM (inactive)	> 100 µM (inactive)	> 100 µM (inactive)	> 100 µM (inactive)	> 100 µM (inactive)
CCN(CC)CCCNc1nccc2c(C)c3c(cc12)c1cnccc1n3C	0.353 µM (active)	0.144 µM (active)	< 0.01 µM (active)	0.116 µM (active)		< 0.01 µM (active)	0.237 µM (active)	0.0282 µM (active)	0.0692 µM (active)	0.403 µM (active)	0.238 µM (active)	0.288 µM (active)	0.427 µM (active)	0.444 µM (active)	0.367 µM (active)	0.431 µM (active)
C/C(CC(=O)Nc1cccc([N+](=O)[O-])c1)=N/NC(N)=S	> 100 µM (inactive)		> 100 µM (inactive)	> 100 µM (inactive)	> 100 µM (inactive)	> 100 µM (inactive)	> 100 µM (inactive)		> 100 µM (inactive)	> 100 µM (inactive)			> 100 µM (inactive)	> 100 µM (inactive)	> 100 µM (inactive)	> 100 µM (inactive)
O=c1ncccn1[C@@H]1O[C@H](CO)[C@H](O)C1O (some centres undefined)	> 100 µM (inactive)	38.8 µM (inactive)	49 µM (inactive)	68.2 µM (inactive)	> 100 µM (inactive)	61.7 µM (inactive)	> 100 µM (inactive)	> 100 µM (inactive)	> 74.5 µM (inactive)	> 100 µM (inactive)	> 77.1 µM (inactive)	> 100 µM (inactive)	53.8 µM (inactive)	> 100 µM (inactive)	> 100 µM (inactive)	> 100 µM (inactive)
N#Cc1c(CC(=O)O)cc(=O)n2c1[nH]c1ccccc12	> 100 µM (inactive)	> 100 µM (inactive)		> 100 µM (inactive)	> 100 µM (inactive)	> 100 µM (inactive)	> 100 µM (inactive)	> 100 µM (inactive)	> 100 µM (inactive)	> 100 µM (inactive)	> 100 µM (inactive)	> 100 µM (inactive)	> 100 µM (inactive)	> 100 µM (inactive)	> 100 µM (inactive)	> 100 µM (inactive)
Cc1ccc(S(=O)(=O)N/N=C(\c2nc3ccc([N+](=O)[O-])cc3[nH]c2=O)C(O)c2ccc([N+](=O)[O-])cc2)cc1 (centres undefined)	35 µM (inactive)	97.1 µM (inactive)	22.3 µM (inactive)	51.2 µM (inactive)		29.4 µM (inactive)	> 100 µM (inactive)	68.9 µM (inactive)	> 100 µM (inactive)	> 100 µM (inactive)	> 100 µM (inactive)	> 100 µM (inactive)	> 100 µM (inactive)	> 100 µM (inactive)	> 100 µM (inactive)	73.8 µM (inactive)
CN1C(=O)CC(c2cccc(C3CC(=O)N(C)C3=O)n2)C1=O (centres undefined)	> 100 µM (inactive)	> 100 µM (inactive)	> 100 µM (inactive)	> 100 µM (inactive)	> 100 µM (inactive)	> 100 µM (inactive)	> 100 µM (inactive)	> 100 µM (inactive)	> 100 µM (inactive)	> 100 µM (inactive)	> 100 µM (inactive)	> 100 µM (inactive)	> 100 µM (inactive)	> 100 µM (inactive)	> 100 µM (inactive)	> 100 µM (inactive)
CC(=O)NNc1nc(C)c(C(/C=C/c2ccc(/C=C/C(=N\NC(=O)c3ccncc3)c3sc(NNC(C)=O)nc3C)cc2)=N/NC(=O)c2ccncc2)s1	> 100 µM (inactive)	> 100 µM (inactive)	> 100 µM (inactive)	> 100 µM (inactive)	> 100 µM (inactive)	> 100 µM (inactive)	> 100 µM (inactive)		> 100 µM (inactive)	> 100 µM (inactive)	> 100 µM (inactive)	> 100 µM (inactive)	> 100 µM (inactive)	> 100 µM (inactive)	> 100 µM (inactive)	> 100 µM (inactive)
CC(=O)Nc1[nH]c(=O)[nH]c(=O)c1N(C(C)=O)C(C)=O	> 100 µM (inactive)	> 100 µM (inactive)	> 100 µM (inactive)		> 100 µM (inactive)	> 100 µM (inactive)	> 100 µM (inactive)	> 100 µM (inactive)	> 100 µM (inactive)	> 100 µM (inactive)	> 100 µM (inactive)	> 100 µM (inactive)			> 100 µM (inactive)	> 100 µM (inactive)
Clc1cc(Cl)cc(Nc2nc3ccccc3nc2-c2cccs2)c1	19.4 µM (inactive)		> 100 µM (inactive)	40.4 µM (inactive)		47.2 µM (inactive)	29.1 µM (inactive)		13.3 µM (inactive)	> 10 µM (inactive)	54.3 µM (inactive)	> 10 µM (inactive)	32.4 µM (inactive)	37.9 µM (inactive)	> 10 µM (inactive)	
C=CCC1=C2CCCCC2CCC1=O (centres undefined)	> 100 µM (inactive)	> 100 µM (inactive)	> 100 µM (inactive)	> 100 µM (inactive)	> 100 µM (inactive)	> 100 µM (inactive)	> 100 µM (inactive)	> 100 µM (inactive)	> 100 µM (inactive)	> 100 µM (inactive)	> 100 µM (inactive)	> 100 µM (inactive)	> 100 µM (inactive)	> 100 µM (inactive)	> 100 µM (inactive)	> 100 µM (inactive)
C=C(C)C1C/C=C(/C)CCCC2(CCC3=C(CC(C(=C)C)C/C=C(/C)CCC3)O2)C(=O)C1 (centres undefined)	> 100 µM (inactive)		> 100 µM (inactive)	> 100 µM (inactive)	> 100 µM (inactive)	> 100 µM (inactive)		> 100 µM (inactive)	> 100 µM (inactive)	> 100 µM (inactive)	> 100 µM (inactive)	> 100 µM (inactive)	> 100 µM (inactive)	> 100 µM (inactive)	> 100 µM (inactive)	
